PubChem BioAssay (NCI)
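A five-concentration, 48-hour dose response in 96-well plates underlies each endpoint, interpolated linearly between surrounding concentrations. TGI: concentration producing complete growth inhibition.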

How the values were obtained:
Experiment in all cases: inhibition of tumour cell growth, NCI panel, 48 h
EKVX NSCLC = system: EKVX NSCLC
K-562 leukemia = system: K-562 leukemia
KM12 colon = system: KM12 colon
MCF7 breast = system: MCF7 breast
PC-3 prostate = system: PC-3 prostate
RPMI-8226 leukemia = system: RPMI-8226 leukemia
SF-539 CNS = system: SF-539 CNS
SNB-19 CNS = system: SNB-19 CNS
U251 CNS = system: U251 CNS
UACC-257 melanoma = system: UACC-257 melanoma

Structure (SMILES)	TGI (EKVX NSCLC) [µM]	TGI (K-562 leukemia) [µM]	TGI (KM12 colon) [µM]	TGI (MCF7 breast) [µM]	TGI (PC-3 prostate) [µM]	TGI (RPMI-8226 leukemia) [µM]	TGI (SF-539 CNS) [µM]	TGI (SNB-19 CNS) [µM]	TGI (U251 CNS) [µM]	TGI (UACC-257 melanoma) [µM]
O=C(O)c1ccccc1CC1Cc2ccccc2C1=O (centres undefined)	> 100	> 100	> 100	> 100	> 100	> 100	> 100	> 100	> 100	> 100
CCOC(=O)c1nc2c(nc1C(=O)OCC)C(=O)c1ccccc1C2=O	3.5	4.46	14.7	1.17	11.2	6.87	1.71	3.59	2.74	1.28
O=C1NCCN1/N=C/c1c(Cl)n(-c2ccccc2)c2ccccc12	91.5	68.1	34.2	67.3	98.8	52.8	33.7	56.9	58.3	58.5
COc1ccc(C2=N/C(=C\c3ccccc3)C(=O)O2)cc1	> 100	> 100	> 100	> 100	> 100	> 100	> 100	> 100	> 100	> 100
CC1(C)C2CCC1(C)[C@H](n1c(=O)n([C@@H]3CC4CCC3(C)C4(C)C)c(=O)n([C@@H]3CC4CCC3(C)C4(C)C)c1=O)C2	67.1	> 100	> 100	> 100	> 100	> 100	48.6	–	> 100	> 100
OCCc1ccsc1-c1sc(-c2cc(CCO)c(-c3sccc3CCO)s2)cc1CCO	32.4	> 100	11.5	31	24.1	> 100	–	36.5	49	34.4
CN(C)C1(N(C)C)Oc2c(c(=O)n(C)c(=O)n2C)C(c2ccc(Br)cc2)C1(F)F (centres undefined)	> 100	–	> 100	> 100	> 100	> 100	–	> 100	> 100	> 100
COc1cccc2c1OC1(C=C2)Oc2ccccc2C(=O)N1C (centres undefined)	> 100	> 100	> 100	> 100	> 100	> 100	–	> 100	> 100	> 100
CCOC(=O)c1cn2c(nc1=O)N[C@H]1CCCC[C@@H]12	> 100	> 100	> 100	> 100	> 100	> 100	> 100	> 100	> 100	> 100
CCN(CC)/C(SCc1ccccc1)=C(\C(Cl)=C(Cl)Cl)[N+](=O)[O-]	56.4	> 100	36.5	32.1	47.1	65.6	39.4	97.5	49	31.8
COP(=O)(/C=C/c1cc(C(=O)OCc2ccccc2)n(S(=O)(=O)c2ccccc2)c1)OC	> 100	> 100	> 100	> 100	> 100	–	> 100	> 100	> 100	> 100
